Values of other authors, collected in patent US20210176995A1, “Disinfection Composition Comprising Tartaric Acid and Lactic Acid” (Wiping Systems ApS, priority 2016, published 2021).

Test system: Aspergillus b., Bacillus S., Cereus and Clostridium spores
Conditions: surfaces

| Molecule | killing of Aspergillus b., Bacillus S., Cereus and Clostridium spores |
| --- | --- |
| PHMB | can't be killed |
| CCO [alcohol, ethanol] | can't be killed |
| CCCCCCCCCC[N+](C)(C)CCCCCCCCCC.[Cl-] [DDAC] | can't be killed |
